# Measurements as given in ChEMBL document CHEMBL1201862, “PubChem BioAssay data set” (2004).
# Activity calls are given as the source filed them.
# How the values were obtained:
# [1] = biological target: Glyceraldehyde-3-phosphate dehydrogenase (Homo sapiens, UniProt P04406)
# [2] = biological target: T1, Alkaline phosphatase, tissue-nonspecific isozyme (Homo sapiens, UniProt P05186); experiment: human TNAP enzyme inhibitors, SAR follow-up, biochemical, luminescent, dose response (AID 1056)
# T1 sequence (P05186 whole entry): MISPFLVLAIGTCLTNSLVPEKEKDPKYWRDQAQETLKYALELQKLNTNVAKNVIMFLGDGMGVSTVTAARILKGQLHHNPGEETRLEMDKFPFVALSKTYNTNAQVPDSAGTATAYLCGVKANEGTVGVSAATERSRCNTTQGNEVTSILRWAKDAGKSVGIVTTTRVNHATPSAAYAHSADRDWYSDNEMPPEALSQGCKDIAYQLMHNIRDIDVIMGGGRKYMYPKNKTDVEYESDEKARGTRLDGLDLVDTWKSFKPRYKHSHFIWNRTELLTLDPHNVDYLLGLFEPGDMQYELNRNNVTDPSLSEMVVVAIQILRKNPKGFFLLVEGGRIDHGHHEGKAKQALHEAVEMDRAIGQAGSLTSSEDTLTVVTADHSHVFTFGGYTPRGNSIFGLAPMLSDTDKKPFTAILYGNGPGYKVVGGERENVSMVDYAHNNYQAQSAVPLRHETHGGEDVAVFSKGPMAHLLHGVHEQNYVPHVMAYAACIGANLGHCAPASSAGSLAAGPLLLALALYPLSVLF
# [3] = biological target: T2, Microphthalmia-associated transcription factor (Homo sapiens, UniProt O75030); experiment: TRPM1 promoter luciferase signal decrease, dose response, MITF inhibitor project, cell-based, SK-MEL-5, cherry-picked, set 3 (AID 493073); assay type: functional
# T2 sequence (O75030 whole entry): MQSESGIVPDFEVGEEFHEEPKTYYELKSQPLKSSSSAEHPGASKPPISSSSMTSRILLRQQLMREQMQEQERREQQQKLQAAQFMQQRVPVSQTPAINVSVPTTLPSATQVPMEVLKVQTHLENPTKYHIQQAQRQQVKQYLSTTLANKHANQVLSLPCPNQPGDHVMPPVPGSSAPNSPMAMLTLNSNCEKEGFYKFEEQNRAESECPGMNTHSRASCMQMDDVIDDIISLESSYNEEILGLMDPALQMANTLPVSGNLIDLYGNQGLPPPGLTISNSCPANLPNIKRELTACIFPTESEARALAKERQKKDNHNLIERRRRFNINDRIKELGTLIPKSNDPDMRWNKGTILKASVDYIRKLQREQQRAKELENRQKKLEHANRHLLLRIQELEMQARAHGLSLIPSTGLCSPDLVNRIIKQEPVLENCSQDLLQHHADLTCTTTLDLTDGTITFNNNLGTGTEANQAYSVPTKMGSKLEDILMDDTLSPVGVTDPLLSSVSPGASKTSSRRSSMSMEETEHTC
# [4] = biological target: T3, Ubiquitin-conjugating enzyme E2 N (Homo sapiens, UniProt P61088); assay type: functional;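 note: Dose-response confirmation in a TR-FRET assay detecting UBC13-driven polyubiquitin chain formation, inhibition measured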
# T3 sequence (P61088 whole entry): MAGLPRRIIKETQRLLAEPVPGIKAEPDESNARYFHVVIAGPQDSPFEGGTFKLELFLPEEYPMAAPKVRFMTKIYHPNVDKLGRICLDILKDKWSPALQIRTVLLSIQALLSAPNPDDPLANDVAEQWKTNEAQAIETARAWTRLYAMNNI
# [5] = tested on: Streptococcus sp. 'group A'; experiment: growth inhibition of control SK(-) GAS strain, dose response, counter-screen for streptokinase expression inhibitor project, luminescence, kanamycin, BacTiterGlo, confirmation (AID 1900); assay type: functional, organism-based
# Streptokinase A = biological target: T4, Streptokinase A (Streptococcus pyogenes serotype M1, UniProt P10520); experiment: S. pyogenes streptokinase expression inhibitors, potency, dose response, plasminogen activation absorbance, OD405 (AID 1914); assay type: functional, Streptococcus pyogenes M1 GAS;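 note: secreted streptokinase activity via plasminogen activation per viability signal from cell pellet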
# T4 sequence (P10520 whole entry): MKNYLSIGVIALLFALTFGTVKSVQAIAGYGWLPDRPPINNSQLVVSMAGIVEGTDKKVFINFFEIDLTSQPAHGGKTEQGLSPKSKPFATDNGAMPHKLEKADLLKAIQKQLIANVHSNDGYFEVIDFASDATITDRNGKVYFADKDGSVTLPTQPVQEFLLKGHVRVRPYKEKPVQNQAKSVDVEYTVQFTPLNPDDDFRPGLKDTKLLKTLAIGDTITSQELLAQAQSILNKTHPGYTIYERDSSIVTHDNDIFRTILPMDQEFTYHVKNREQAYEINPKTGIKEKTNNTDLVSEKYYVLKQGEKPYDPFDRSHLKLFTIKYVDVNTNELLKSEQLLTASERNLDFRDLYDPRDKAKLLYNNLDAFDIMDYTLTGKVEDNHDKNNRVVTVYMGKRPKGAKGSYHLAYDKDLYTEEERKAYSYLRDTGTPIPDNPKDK
# Streptococcus = experiment: Group A Streptococcus viability loss, dose response, counter-screen for streptokinase expression inhibitor project, luminescence, BacTiterGlo (AID 1915); assay type: functional, organism-based;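 note: potency for reduction of bacterial viability or growth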
# [6] = biological target: Disintegrin and metalloproteinase domain-containing protein 17 (Homo sapiens, UniProt P78536); experiment: ADAM17 protease inhibitors, dose response, counter-screen for ADAM10 exosite inhibitor project, biochemical, quenched FRET substrate (AID 743253)
# Leucine aminopeptidase = biological target: T5, Leucine aminopeptidase (Plasmodium falciparum 3D7, UniProt Q8IL11); experiment: P. falciparum M17LAP inhibitors, primary screen, biochemical, fluorogenic H-Leu-NHMec substrate, 1536-well (AID 1619); assay type: functional
# T5 sequence (Q8IL11 whole entry): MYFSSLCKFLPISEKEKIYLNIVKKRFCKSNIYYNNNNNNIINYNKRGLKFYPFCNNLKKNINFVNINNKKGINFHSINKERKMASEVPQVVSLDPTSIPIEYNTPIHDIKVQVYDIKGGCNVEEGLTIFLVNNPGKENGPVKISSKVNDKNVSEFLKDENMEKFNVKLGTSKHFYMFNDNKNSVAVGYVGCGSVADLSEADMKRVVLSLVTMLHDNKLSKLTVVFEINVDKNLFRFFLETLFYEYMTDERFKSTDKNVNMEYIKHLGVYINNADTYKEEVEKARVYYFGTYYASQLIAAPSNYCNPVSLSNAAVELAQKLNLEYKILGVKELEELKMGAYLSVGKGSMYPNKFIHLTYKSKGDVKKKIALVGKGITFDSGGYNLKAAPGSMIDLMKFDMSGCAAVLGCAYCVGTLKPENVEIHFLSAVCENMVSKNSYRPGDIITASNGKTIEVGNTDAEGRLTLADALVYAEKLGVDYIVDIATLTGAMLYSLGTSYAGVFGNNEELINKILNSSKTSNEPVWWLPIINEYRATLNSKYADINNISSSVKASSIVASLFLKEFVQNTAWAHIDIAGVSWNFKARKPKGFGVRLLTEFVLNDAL
# [7] = Luminescence Cell-Based Dose Confirmation HTS to Identify Activators of 5'UTR Stem-Loop Driven Alpha-Synuclein mRNA Translation in H4 Neuroglioblastoma Cells. [Related pubchem assays: 1829 (Project Summary), 1814 (Primary HTS)]; assay type: functional
# [8] = Luminescence Cell-Based Dose Response HTS to Identify Activators of Luciferase Translation or Activity in H4 […] Cells. [Related pubchem assays: 1829 (Project Summary), 1814 (Primary HTS)]; assay type: functional
# H4 = experiment: Luminescence Cell-Based Dose Response HTS to Identify Activators of 5'UTR Stem-Loop Driven Prion Protein mRNA Translation in H4 Neuroglioblastoma Cells. [Related pubchem assays: 1829 (Project Summary), 1814 (Primary HTS)]; assay type: functional; conditions: Homo sapiens
# Cytochrome P450 1A2 = biological target: T6, Cytochrome P450 1A2 (Homo sapiens, UniProt P05177);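 note: PubChem cytochrome P450 panel assay, CYP1A2 panel member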
# T6 sequence (P05177 whole entry): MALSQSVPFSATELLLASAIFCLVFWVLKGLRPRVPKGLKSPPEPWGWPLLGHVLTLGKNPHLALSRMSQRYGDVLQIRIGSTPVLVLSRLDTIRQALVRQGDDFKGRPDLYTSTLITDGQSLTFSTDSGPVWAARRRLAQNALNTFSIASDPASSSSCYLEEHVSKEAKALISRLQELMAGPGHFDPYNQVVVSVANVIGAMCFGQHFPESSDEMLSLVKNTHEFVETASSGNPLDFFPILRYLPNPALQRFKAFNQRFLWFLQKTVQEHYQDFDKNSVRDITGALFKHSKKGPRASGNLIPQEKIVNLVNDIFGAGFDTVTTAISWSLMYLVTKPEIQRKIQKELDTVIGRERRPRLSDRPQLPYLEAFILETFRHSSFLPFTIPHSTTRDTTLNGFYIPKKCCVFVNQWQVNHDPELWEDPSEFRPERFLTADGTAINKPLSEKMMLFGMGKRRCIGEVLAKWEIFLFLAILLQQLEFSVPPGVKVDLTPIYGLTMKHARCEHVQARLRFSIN
# Cytochrome P450 2C9 = Cytochrome P450 2C9 (Homo sapiens, UniProt P11712)
# cells = assay type: functional
# [9] = biological target: T7, Corticotropin-releasing factor receptor 2/Corticotropin-releasing factor-binding protein (Homo sapiens, UniProt P24387+Q13324); experiment: activators of CRF receptor 2 with binding protein – uHTS hits, confirmation (AID 602473); assay type: functional; conditions: read-out: EC50_Mean
# T7 sequence (Q13324 whole entry): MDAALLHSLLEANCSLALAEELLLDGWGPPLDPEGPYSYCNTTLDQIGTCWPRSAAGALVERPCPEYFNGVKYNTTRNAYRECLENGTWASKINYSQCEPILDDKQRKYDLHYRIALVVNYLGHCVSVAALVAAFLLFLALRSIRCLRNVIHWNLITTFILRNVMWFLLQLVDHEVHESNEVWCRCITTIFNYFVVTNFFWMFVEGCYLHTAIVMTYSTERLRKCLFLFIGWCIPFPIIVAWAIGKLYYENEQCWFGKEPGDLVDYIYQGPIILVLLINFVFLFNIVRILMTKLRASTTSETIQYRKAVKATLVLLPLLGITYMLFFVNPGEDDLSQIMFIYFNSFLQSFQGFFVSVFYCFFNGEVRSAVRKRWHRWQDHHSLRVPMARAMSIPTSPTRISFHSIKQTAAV
# T7 sequence (P24387 whole entry): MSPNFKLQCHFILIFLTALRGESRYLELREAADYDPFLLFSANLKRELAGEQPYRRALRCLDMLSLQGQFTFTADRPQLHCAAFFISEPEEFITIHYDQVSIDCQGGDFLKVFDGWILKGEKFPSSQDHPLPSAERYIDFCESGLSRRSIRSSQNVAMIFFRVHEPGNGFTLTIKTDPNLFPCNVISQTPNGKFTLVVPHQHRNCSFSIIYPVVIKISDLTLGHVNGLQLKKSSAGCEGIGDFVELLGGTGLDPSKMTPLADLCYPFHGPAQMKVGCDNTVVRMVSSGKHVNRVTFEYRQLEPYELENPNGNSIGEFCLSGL
# Coagulation factor XII = biological target: T8, Coagulation factor XII (Homo sapiens, UniProt P00748); assay type: functional;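 note: activated factor XIIa alpha cleaving a fluorogenic AMC peptide substrate; inhibitor potency from loss of enzyme activity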
# T8 sequence (P00748 whole entry): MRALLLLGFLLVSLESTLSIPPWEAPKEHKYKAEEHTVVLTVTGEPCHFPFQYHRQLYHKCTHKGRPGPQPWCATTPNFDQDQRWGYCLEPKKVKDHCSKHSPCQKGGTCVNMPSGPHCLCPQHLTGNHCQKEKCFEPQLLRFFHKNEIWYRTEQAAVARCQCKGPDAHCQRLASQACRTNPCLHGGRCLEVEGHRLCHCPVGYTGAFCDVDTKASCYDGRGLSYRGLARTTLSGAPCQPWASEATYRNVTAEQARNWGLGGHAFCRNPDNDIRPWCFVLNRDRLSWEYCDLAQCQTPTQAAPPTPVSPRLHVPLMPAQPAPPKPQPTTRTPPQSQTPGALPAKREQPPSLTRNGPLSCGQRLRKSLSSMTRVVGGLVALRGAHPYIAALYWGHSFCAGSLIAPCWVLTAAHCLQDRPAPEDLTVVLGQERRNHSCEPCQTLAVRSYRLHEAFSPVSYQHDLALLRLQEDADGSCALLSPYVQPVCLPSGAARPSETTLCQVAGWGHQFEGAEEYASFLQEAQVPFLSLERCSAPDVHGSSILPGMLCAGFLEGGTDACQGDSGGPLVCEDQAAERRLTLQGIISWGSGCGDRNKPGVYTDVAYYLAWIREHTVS
# Sequence of Glyceraldehyde-3-phosphate dehydrogenase (P04406 whole entry): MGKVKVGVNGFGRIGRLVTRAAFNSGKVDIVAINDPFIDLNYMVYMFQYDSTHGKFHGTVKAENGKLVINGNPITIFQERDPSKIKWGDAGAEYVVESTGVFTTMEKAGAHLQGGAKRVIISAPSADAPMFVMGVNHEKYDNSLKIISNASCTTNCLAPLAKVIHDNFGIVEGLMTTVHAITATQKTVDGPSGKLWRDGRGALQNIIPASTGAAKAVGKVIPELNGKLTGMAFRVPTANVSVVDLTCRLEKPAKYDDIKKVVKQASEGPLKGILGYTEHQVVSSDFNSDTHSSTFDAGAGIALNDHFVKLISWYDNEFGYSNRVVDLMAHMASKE
# Sequence of Disintegrin and metalloproteinase domain-containing protein 17 (P78536 whole entry, the tested form may be a part): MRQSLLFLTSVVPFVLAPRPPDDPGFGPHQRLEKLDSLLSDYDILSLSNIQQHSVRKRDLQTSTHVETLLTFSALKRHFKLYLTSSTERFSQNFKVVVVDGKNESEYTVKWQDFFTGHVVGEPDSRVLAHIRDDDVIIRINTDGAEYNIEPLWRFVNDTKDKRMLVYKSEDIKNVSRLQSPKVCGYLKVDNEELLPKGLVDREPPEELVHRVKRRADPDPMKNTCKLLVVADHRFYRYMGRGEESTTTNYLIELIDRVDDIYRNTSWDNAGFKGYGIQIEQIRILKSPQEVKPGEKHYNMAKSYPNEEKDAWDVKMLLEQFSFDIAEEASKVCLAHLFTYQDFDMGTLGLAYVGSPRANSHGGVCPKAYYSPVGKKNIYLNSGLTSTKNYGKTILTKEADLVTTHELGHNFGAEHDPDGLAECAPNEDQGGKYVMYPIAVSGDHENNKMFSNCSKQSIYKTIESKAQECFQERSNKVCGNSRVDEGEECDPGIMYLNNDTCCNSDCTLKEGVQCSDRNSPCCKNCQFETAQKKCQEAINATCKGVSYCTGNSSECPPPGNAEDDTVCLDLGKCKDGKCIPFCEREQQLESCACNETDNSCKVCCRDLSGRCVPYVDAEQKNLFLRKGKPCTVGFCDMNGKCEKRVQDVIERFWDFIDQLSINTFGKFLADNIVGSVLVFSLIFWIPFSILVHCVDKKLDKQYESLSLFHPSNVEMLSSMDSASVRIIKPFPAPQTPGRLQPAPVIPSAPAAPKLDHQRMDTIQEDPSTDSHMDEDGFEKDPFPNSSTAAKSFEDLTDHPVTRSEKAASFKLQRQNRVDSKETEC
# Sequence of Cytochrome P450 2C9 (P11712 whole entry): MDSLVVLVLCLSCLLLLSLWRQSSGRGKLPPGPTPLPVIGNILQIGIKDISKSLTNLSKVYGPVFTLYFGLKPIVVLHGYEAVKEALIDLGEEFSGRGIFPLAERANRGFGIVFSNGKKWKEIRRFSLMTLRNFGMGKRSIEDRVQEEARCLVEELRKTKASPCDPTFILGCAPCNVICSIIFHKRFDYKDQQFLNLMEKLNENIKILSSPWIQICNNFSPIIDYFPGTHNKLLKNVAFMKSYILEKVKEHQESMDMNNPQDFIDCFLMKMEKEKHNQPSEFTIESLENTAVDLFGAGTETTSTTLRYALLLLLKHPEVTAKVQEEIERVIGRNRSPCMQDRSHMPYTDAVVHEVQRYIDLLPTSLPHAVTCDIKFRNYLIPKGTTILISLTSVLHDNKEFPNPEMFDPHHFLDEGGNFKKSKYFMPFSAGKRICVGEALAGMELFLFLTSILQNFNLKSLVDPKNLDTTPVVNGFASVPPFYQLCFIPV
smiles,measurement,setting,value
Cc1ccc(S(=O)(=O)Nc2cnc3ccccc3c2)cc1,IC50,[1],> 100 µM (not active)
same,IC50,[2],44.9 µM (active)
CC1CCN(CC2C(=O)O[C@@H]3C[C@@]4(C)CCC[C@H](C)C4=C[C@H]23)CC(C)(C)C1 (stereo partly specified),AC50,[3],16.1 µM (active)
CCN(CC)CCNC(=O)c1c(C)n(-c2ccccc2)c2cc(Br)c(OC)cc12,IC50,[4],> 20 µM (inactive)
same,AC50,[3],12.9 µM (active)
O=C(Nc1ccc(N2CCCC2)c(S(=O)(=O)Nc2cccc(C(F)(F)F)c2)c1)c1cccs1,EC50,[5],3.38 µM (active)
same,EC50,Streptokinase A,> 150 µM (not active)
same,EC50,Streptococcus,10.5 µM (active)
same,IC50,[6],> 69.5 µM (inactive)
COc1ccc2c(c1OC)C(=O)N(c1nnc(SC)[nH]1)C2=O,IC50,[1],> 100 µM (not active)
same,IC50,[2],34.1 µM (active)
O=C(CN1C(=O)C2C3C=CC(C3)C2C1=O)Nc1ccc2c(c1)OCCO2 (stereo unspecified),IC50,Leucine aminopeptidase,21 µM (active)
same,EC50,[7],15.1 µM (active)
same,EC50,[8],22.4 µM (active)
same,EC50,H4,19 µM (active)
same,AC50,Cytochrome P450 1A2,15.8 µM (inconclusive)
same,AC50,Cytochrome P450 2C9,0.316 µM (inconclusive)
COc1cc(OC)c2c(OC)cccc2n1,IC50,cells,30.1 µM (active)
CC(=O)c1ccc(N2CCC(c3cc(-c4ccc(Cl)cc4Cl)n[nH]3)CC2)c([N+](=O)[O-])c1,EC50,Streptokinase A,> 150 µM (not active)
same,IC50,[6],> 69.5 µM (inactive)
same,AC50,Cytochrome P450 1A2,14.1 µM (inconclusive)
Cc1cccc(C(=O)NC(=S)NNC(=O)COc2c(C)cccc2C)c1,IC50,Leucine aminopeptidase,59.1 µM (active)
same,EC50,[9],1.65 µM (active)
CCCOC(=O)c1ccc(NC(=O)c2ccc(Br)o2)cc1,IC50,cells,30.5 µM (active)
CCN(CC)C(=O)c1cc(-c2cc(F)c(Cl)cc2Cl)n[nH]1,IC50,[1],> 10 µM (inconclusive)
same,IC50,[2],3.63 µM (active)
CCC(CC)c1nnc(NC(=O)Oc2ccccc2)s1,IC50,Coagulation factor XII,> 50 µM (inactive)
Nc1ccnn1Cc1cccs1,IC50,Coagulation factor XII,> 50 µM (inactive)
c1ccc(Cn2cnc(-c3cccnc3)c2)cc1,IC50,[1],> 100 µM (not active)
same,IC50,[2],> 100 µM (inactive)
CC(/C=C/c1ccccc1)=N\NC(=O)c1ccc2c(c1)OCCO2,IC50,cells,25.7 µM (active)
